From patent publication US11939320B2, “Modulators of the integrated stress pathway” (Calico Life Sciences LLC, priority 2017, dated 2024)

Tested on: HEK293T cells carrying the ATF4 luciferase reporter
Assay: ATF4-Luc assay (in vitro model of VWMD)
Type: cell-based
Details: Homo sapiens, HEK-293T; HEK293T cells with ATF4 5'-UTR firefly luciferase reporter; 1 μg/mL tunicamycin; 7 hours; One Glo luminescence
Procedure: In order to test exemplary compounds of the invention in a cellular context, a stable VWMD cell line was first constructed. The ATF4 reporter was prepared by fusing the human full-length ATF4 5′-UTR (NCBI Accession No. BC022088.2) in front of the firefly luciferase (FLuc) coding sequence lacking the initiator methionine as described in Sidrauski et al (eLife 2013). The construct was used to produce recombinant retroviruses using standard methods and the resulting viral supernatant was used to transduce HEK293T cells, which were then subsequently selected with puromycin to generate a stable cell line.
HEK293T cells carrying the ATF4 luciferase reporter were plated on polylysine coated 384-well plates (Greiner Bio-one) at 30,000 cells per well. Cells were treated the next day with 1 μg/mL tunicamycin and 200 nM of a compound of Formula (I) for 7 hours. Luminescence was measured using One Glo (Promega) as specified by the manufacturer. Cells were maintained in DMEM with L-glutamine supplemented with 10% heat-inactivated FBS (Gibco) and Antibiotic-Antimycotic solution (Gibco).
Table 2 below summarizes the EC50 data obtained using the ATF4-Luc assay for exemplary compounds of the invention.

SMILES | EC50
O=C(COc1ccc(Cl)c(F)c1)N[C@@H]1CC[C@@H](C(=O)NCCc2ccc(Cl)cc2)OC1 [Compound 146, (2S,5R)-5-[2-(4-chloro-3-fluorophenoxy)acetamido]-N-[2-(4-chlorophenyl)ethyl]oxane-2-carboxamide] | 50 to 250 nM
N#Cc1ccc(CNC(=O)[C@H]2CC[C@H](NC(=O)COc3ccc(Cl)c(Cl)c3)CC2)nc1 [Compound 173, (1r,4r)-N-[(5-cyanopyridin-2-yl)methyl]-4-[2-(3,4-dichlorophenoxy)acetamido]cyclohexane-1-carboxamide] | 50 to 250 nM
O=C(COc1ccc(Cl)c(F)c1)N[C@H]1CC[C@@H](C(=O)N2CC(c3ccc(Cl)cc3)C2)CC1 [Compound 133, 2-(4-chloro-3-fluorophenoxy)-N-{(1s,4s)-4-[3-(4-chlorophenyl)azetidine-1-carbonyl]cyclohexyl}acetamide] | > 2000 nM
O=C(COc1ccc(Cl)c(F)c1)N[C@@H]1CC[C@@H](C(=O)NCc2cn3ccc(Cl)cc3n2)OC1 [Compound 138, (2S,5R)-5-[2-(4-chloro-3-fluorophenoxy)acetamido]-N-[(7-chloroimidazo[1,2-a]pyridin-2-yl)methyl]oxane-2-carboxamide] | 10 to 50 nM
O=C(COc1ccc(Cl)c(Cl)c1)N[C@H]1CC[C@H](C(=O)NCc2ccc(C(F)(F)F)nc2)CC1 [Compound 100, (1r,4r)-4-[2-(3,4-dichlorophenoxy)acetamido]-N-{[6-(trifluoromethyl)pyridin-3-yl]methyl}cyclohexane-1-carboxamide] | 10 to 50 nM
O=C(COc1ccc(Cl)c(F)c1)N[C@H]1CC[C@H](C(=O)Nc2ccc(OC(F)F)nc2)CC1 [Compound 109, (1r,4r)-4-[2-(4-chloro-3-fluorophenoxy)acetamido]-N-[6-(difluoromethoxy)pyridin-3-yl]cyclohexane-1-carboxamide] | < 10 nM
O=C(COc1ccc(Cl)c(F)c1)N[C@@H]1CC[C@H](C(=O)NCc2ccc(C(F)(F)F)cn2)OC1 (single isomer, unassigned) [Compound 163] | > 2000 nM
O=C(COc1ccc(Cl)c(F)c1)N[C@@H]1CC[C@@H](C(=O)NCc2ccc(C(F)(F)F)cc2)OC1 [Compound 158, (2S,5R)-5-[2-(4-chloro-3-fluorophenoxy)acetamido]-N-{[4-(trifluoromethyl)phenyl]methyl}oxane-2-carboxamide] | 50 to 250 nM
O=C(COc1ccc(Cl)c(F)c1)N[C@H]1CC[C@H](C(=O)NCc2ncco2)CC1 [Compound 117, (1r,4r)-4-[2-(4-chloro-3-fluorophenoxy)acetamido]-N-[(1,3-oxazol-2-yl)methyl]cyclohexane-1-carboxamide] | > 2000 nM
O=C(COc1ccc(Cl)c(Cl)c1)N[C@H]1CC[C@H](C(=O)NCc2nc3cc(F)c(F)cc3[nH]2)CC1 [Compound 152, (1r,4r)-4-[2-(3,4-dichlorophenoxy)acetamido]-N-[(5,6-difluoro-1H-benzimidazol-2-yl)methyl]cyclohexane-1-carboxamide] | > 2000 nM
O=C(COc1ccc(Cl)c(F)c1)N[C@@H]1CC[C@@H](C(=O)NCc2nc3cc(F)c(F)cc3[nH]2)OC1 [Compound 156, (2S,5R)-5-[2-(4-chloro-3-fluorophenoxy)acetamido]-N-[(5,6-difluoro-1H-benzimidazol-2-yl)methyl]oxane-2-carboxamide] | 50 to 250 nM
O=C(COc1ccc(Cl)c(F)c1)N[C@H]1CC[C@H](C(=O)NCCOc2ccc(Cl)c(F)c2)CC1 [Compound 178, (1r,4r)-4-[2-(4-chloro-3-fluorophenoxy)acetamido]-N-[2-(4-chloro-3-fluorophenoxy)ethyl]cyclohexane-1-carboxamide] | 10 to 50 nM
O=C(COc1ccc(Cl)c(F)c1)N[C@H]1CC[C@H](C(=O)N2CCN(c3cccc(Cl)c3)C(=O)C2)CC1 [Compound 126, 2-(4-chloro-3-fluorophenoxy)-N-{(1r,4r)-4-[4-(3-chlorophenyl)-3-oxopiperazine-1-carbonyl]cyclohexyl}acetamide] | 500 to 2000 nM
CN(Cc1cccnc1)C(=O)[C@H]1CC[C@H](NC(=O)COc2ccc(Cl)c(Cl)c2)CC1 [Compound 106, (1r,4r)-4-[2-(3,4-dichlorophenoxy)acetamido]-N-methyl-N-[(pyridin-3-yl)methyl]cyclohexane-1-carboxamide] | > 2000 nM
O=C(COc1ccc(Cl)c(F)c1)N[C@@H]1CC[C@@H](C(=O)N2CCn3c(nnc3C(F)(F)F)C2)OC1 [Compound 144, 2-(4-chloro-3-fluorophenoxy)-N-{(3R,6S)-6-[3-(trifluoromethyl)-5,6-dihydro[1,2,4]triazolo[4,3-a]pyrazine-7(8H)-carbonyl]oxan-3-yl}acetamide] | > 2000 nM
O=C(COc1ccc(Cl)c(F)c1)N[C@H]1CC[C@H](C(=O)N2Cc3ccc(Cl)cc3C2)CC1 [Compound 132, N-[(1r,4r)-4-(5-chloro-1,3-dihydro-2H-isoindole-2-carbonyl)cyclohexyl]-2-(4-chloro-3-fluorophenoxy)acetamide] | 10 to 50 nM
O=C(COc1ccc(Cl)c(F)c1)N[C@@H]1CC[C@@H](C(=O)NCc2ccc(C(F)(F)F)cn2)OC1 [Compound 186, (2S,5R)-5-[2-(4-chloro-3-fluorophenoxy)acetamido]-N-{[5-(trifluoromethyl)pyridin-2-yl]methyl}oxane-2-carboxamide] | 10 to 50 nM
O=C(COc1ccc(Cl)c(F)c1)N[C@H]1C[C@H](C(=O)Nc2ccc(OC(F)F)nc2)C1 [Compound 168, (1r,3r)-3-[2-(4-chloro-3-fluorophenoxy)acetamido]-N-[6-(difluoromethoxy)pyridin-3-yl]cyclobutane-1-carboxamide] | > 2000 nM
O=C(COc1ccc(C(F)(F)F)nc1)N[C@H]1CC[C@H](C(=O)NCc2nc3cc(Cl)ccc3[nH]2)CC1 [Compound 147, (1r,4r)-N-[(5-chloro-1H-benzimidazol-2-yl)methyl]-4-(2-{[6-(trifluoromethyl)pyridin-3-yl]oxy}acetamido)cyclohexane-1-carboxamide] | > 2000 nM
O=C(COc1ccc(Cl)c(F)c1)N[C@@H]1CC[C@@H](C(=O)N2CCC(c3ccc(Cl)cc3)C2)OC1 (stereo partly drawn) [Compound 143, 2-(4-chloro-3-fluorophenoxy)-N-{(3R,6S)-6-[3-(4-chlorophenyl)pyrrolidine-1-carbonyl]oxan-3-yl}acetamide] | 500 to 2000 nM
O=C(COc1ccc(Cl)c(F)c1)N[C@H]1C[C@H](C(=O)N2CC(c3ccc(Cl)cc3)C2)C1 [Compound 123, 2-(4-chloro-3-fluorophenoxy)-N-{(1r,3r)-3-[3-(4-chlorophenyl)azetidine-1-carbonyl]cyclobutyl}acetamide] | 250 to 500 nM
O=C(COc1ccc(Cl)c(F)c1)N[C@H]1C[C@H](C(=O)NCc2ccc(Cl)cn2)C1 [Compound 121, (1r,3r)-3-[2-(4-chloro-3-fluorophenoxy)acetamido]-N-[(5-chloropyridin-2-yl)methyl]cyclobutane-1-carboxamide] | 250 to 500 nM
O=C(COc1ccc(Cl)c(Cl)c1)N[C@H]1CC[C@H](C(=O)Nc2ccc(OCC(F)(F)F)nc2)CC1 [Compound 103, (1r,4r)-4-[2-(3,4-dichlorophenoxy)acetamido]-N-[6-(2,2,2-trifluoroethoxy)pyridin-3-yl]cyclohexane-1-carboxamide] | > 2000 nM
O=C(COc1ccc(Cl)c(F)c1)NC1CCC(C(=O)NCc2ccc(C(F)(F)F)cn2)OC1 (stereo not drawn) [Compound 166, 5-[2-(4-chloro-3-fluorophenoxy)acetamido]-N-{[5-(trifluoromethyl)pyridin-2-yl]methyl}oxane-2-carboxamide] | > 2000 nM
O=C(COc1ccc(Cl)c(F)c1)N[C@H]1CC[C@H](C(=O)NCc2ccc(OC(F)F)cn2)CC1 [Compound 107, (1r,4r)-4-[2-(4-chloro-3-fluorophenoxy)acetamido]-N-{[5-(difluoromethoxy)pyridin-2-yl]methyl}cyclohexane-1-carboxamide] | 10 to 50 nM
O=C(COc1ccc(Cl)c(F)c1)N[C@H]1CC[C@H](C(=O)Nc2ccc(Cl)c(F)c2)CC1 [Compound 111, (1r,4r)-4-[2-(4-chloro-3-fluorophenoxy)acetamido]-N-(4-chloro-3-fluorophenyl)cyclohexane-1-carboxamide] | 10 to 50 nM
O=C(COc1ccc(Cl)c(F)c1)N[C@H]1CC[C@H](C(=O)N2CCN(c3ccc(Cl)cc3)C(=O)C2)CC1 [Compound 125, 2-(4-chloro-3-fluorophenoxy)-N-{(1r,4r)-4-[4-(4-chlorophenyl)-3-oxopiperazine-1-carbonyl]cyclohexyl}acetamide] | 250 to 500 nM
COc1ncc(CNC(=O)[C@@H]2CC[C@@H](NC(=O)COc3ccc(Cl)c(F)c3)CO2)cn1 [Compound 140, (2S,5R)-5-[2-(4-chloro-3-fluorophenoxy)acetamido]-N-[(2-methoxypyrimidin-5-yl)methyl]oxane-2-carboxamide] | > 2000 nM
O=C(COc1ccc(Cl)c(F)c1)N[C@H]1CC[C@H](C(=O)NCc2nc3cc(F)c(F)cc3[nH]2)CC1 [Compound 153, (1r,4r)-4-[2-(4-chloro-3-fluorophenoxy)acetamido]-N-[(5,6-difluoro-1H-benzimidazol-2-yl)methyl]cyclohexane-1-carboxamide] | > 2000 nM
O=C(COc1ccc(Cl)c(Cl)c1)N[C@H]1CC[C@H](C(=O)NCc2ccc(OC(F)F)cc2)CC1 [Compound 104, (1r,4r)-4-[2-(3,4-dichlorophenoxy)acetamido]-N-{[4-(difluoromethoxy)phenyl]methyl}cyclohexane-1-carboxamide] | 50 to 250 nM
